Measured values published in patent US20230085307A1, “PYRIDAZINONE COMPOUND AND HERBICIDE” (NISSAN CHEMICAL CORPORATION, priority 2019, published 2023).

Key:
velvetleaf [1] = test: Test Example 4: herbicidal effect by soil treatment (Table 19, symbol M); type: in vivo, velvetleaf (Abutilon theophrasti); conditions: amount of applied herbicide 320 g/ha
How it was run: (§1)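 Scoring uses the grading scale of an earlier test, three weeks post-application. Treatment consists of spraying a diluted emulsion formulation across the surface of sterilized diluvial soil in which seeds are buried near 1.5 cm deep; boxes are kept in a greenhouse between 25° C. and 30° C.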

lambsquarters [2] = test: Test Example 4: herbicidal effect by soil treatment (Table 19, symbol O); type: in vivo, lambsquarters (Chenopodium album); conditions: amount of applied herbicide 320 g/ha
How it was run: as §1

southern crabgrass [3] = test: Test Example 4: herbicidal effect by soil treatment (Table 19, symbol F); type: in vivo, southern crabgrass (Digitaria ciliaris); conditions: amount of applied herbicide 320 g/ha
How it was run: as §1

late watergrass = test: Test Example 1: herbicidal activity, application before weed generation under submerged conditions (Table 16, symbol A); type: in vivo, late watergrass (Echinochloa oryzicola); conditions: 320 g/ha applied herbicide
How it was run: (§2)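 Emulsion formulation, water-diluted to set dose, was put onto the flooded surface (4 cm depth, alluvial soil) the same day weeds were sown and 2.5-leaf rice transplanted. After 3 weeks at 25-30 °C under glass, each species was rated 0 (≤5% kill) to 5 (≥90% kill).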

redroot pigweed [4] = test: Test Example 4: herbicidal effect by soil treatment (Table 19, symbol N); type: in vivo, redroot pigweed (Amaranthus retroflexus); conditions: amount of applied herbicide 320 g/ha
How it was run: as §1

persian speedwell [5] = test: Test Example 4: herbicidal effect by soil treatment (Table 19, symbol R); type: in vivo, Persian speedwell (Veronica persica); conditions: amount of applied herbicide 320 g/ha
How it was run: as §1

persian speedwell [6] = test: Test Example 5: herbicidal effect by foliage application, plastic box (Table 20, symbol R); type: in vivo, Persian speedwell (Veronica persica); conditions: foliage application, 320 g/ha, evaluated three weeks after application
How it was run: (§3)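 Post-emergence foliar test in sterilized diluvial soil. Compound applied as water-diluted emulsion at a predetermined rate to 14-day-old plants; evaluation at three weeks.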

Chinese sprangletop = test: Test Example 3: herbicidal effect by foliage application, Wagner pot (Table 18, symbol D); type: in vivo, chinese sprangletop (Leptochloa chinensis); conditions: amount of applied herbicide 320 g/ha
How it was run: (§4)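 Plants were sown in alluvial soil held under 0.1–0.5 cm standing water and grown 14 days in a greenhouse at 25–30 °C. An emulsifiable formulation, water-diluted to the set dose, was then sprayed onto the foliage, and effects were scored three weeks later using previously defined criteria.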

false cleavers [7] = test: Test Example 5: herbicidal effect by foliage application, plastic box (Table 20, symbol Q); type: in vivo, false cleavers (Galium spurium); conditions: foliage application, 320 g/ha, evaluated three weeks after application
How it was run: as §3

chickweed [8] = test: Test Example 5: herbicidal effect by foliage application, plastic box (Table 20, symbol P); type: in vivo, common chickweed (Stellaria media); conditions: foliage application, 320 g/ha, evaluated three weeks after application
How it was run: as §3

chickweed [9] = test: Test Example 4: herbicidal effect by soil treatment (Table 19, symbol P); type: in vivo, common chickweed (Stellaria media); conditions: amount of applied herbicide 320 g/ha
How it was run: as §1

rice flat sedge = test: Test Example 3: herbicidal effect by foliage application, Wagner pot (Table 18, symbol E); type: in vivo, rice flat sedge (Cyperus iria); conditions: amount of applied herbicide 320 g/ha
How it was run: as §4

barnyard grass [10] = test: Test Example 4: herbicidal effect by soil treatment (Table 19, symbol H); type: in vivo, barnyard grass (Echinochloa crus-galli); conditions: amount of applied herbicide 320 g/ha
How it was run: as §1

windgrass [11] = test: Test Example 5: herbicidal effect by foliage application, plastic box (Table 20, symbol L); type: in vivo, windgrass (Apera spica-venti); conditions: foliage application, 320 g/ha, evaluated three weeks after application
How it was run: as §3

Japanese bulrush = test: Test Example 1: herbicidal activity, application before weed generation under submerged conditions (Table 16, symbol B); type: in vivo, Japanese bulrush (Schoenoplectus juncoides); conditions: 320 g/ha applied herbicide
How it was run: as §2

Italian ryegrass [12] = test: Test Example 5: herbicidal effect by foliage application, plastic box (Table 20, symbol K); type: in vivo, Italian ryegrass (Lolium multiflorum); conditions: foliage application, 320 g/ha, evaluated three weeks after application
How it was run: as §3

blackgrass [13] = test: Test Example 4: herbicidal effect by soil treatment (Table 19, symbol J); type: in vivo, blackgrass (Alopecurus myosuroides); conditions: amount of applied herbicide 320 g/ha
How it was run: as §1

southern crabgrass [14] = test: Test Example 5: herbicidal effect by foliage application, plastic box (Table 20, symbol F); type: in vivo, southern crabgrass (Digitaria ciliaris); conditions: foliage application, 320 g/ha, evaluated three weeks after application
How it was run: as §3

barnyard grass [15] = test: Test Example 5: herbicidal effect by foliage application, plastic box (Table 20, symbol H); type: in vivo, barnyard grass (Echinochloa crus-galli); conditions: foliage application, 320 g/ha, evaluated three weeks after application
How it was run: as §3

lambsquarters [16] = test: Test Example 5: herbicidal effect by foliage application, plastic box (Table 20, symbol O); type: in vivo, lambsquarters (Chenopodium album); conditions: foliage application, 320 g/ha, evaluated three weeks after application
How it was run: as §3

green foxtail [17] = test: Test Example 5: herbicidal effect by foliage application, plastic box (Table 20, symbol G); type: in vivo, green foxtail (Setaria viridis); conditions: foliage application, 320 g/ha, evaluated three weeks after application
How it was run: as §3

velvetleaf [18] = test: Test Example 5: herbicidal effect by foliage application, plastic box (Table 20, symbol M); type: in vivo, velvetleaf (Abutilon theophrasti); conditions: foliage application, 320 g/ha, evaluated three weeks after application
How it was run: as §3

wild oat [19] = test: Test Example 4: herbicidal effect by soil treatment (Table 19, symbol I); type: in vivo, wild oat (Avena fatua); conditions: amount of applied herbicide 320 g/ha
How it was run: as §1

windgrass [20] = test: Test Example 4: herbicidal effect by soil treatment (Table 19, symbol L); type: in vivo, windgrass (Apera spica-venti); conditions: amount of applied herbicide 320 g/ha
How it was run: as §1

Italian ryegrass [21] = test: Test Example 4: herbicidal effect by soil treatment (Table 19, symbol K); type: in vivo, Italian ryegrass (Lolium multiflorum); conditions: amount of applied herbicide 320 g/ha
How it was run: as §1

blackgrass [22] = test: Test Example 5: herbicidal effect by foliage application, plastic box (Table 20, symbol J); type: in vivo, blackgrass (Alopecurus myosuroides); conditions: foliage application, 320 g/ha, evaluated three weeks after application
How it was run: as §3

oval-leafed pondweed = test: Test Example 1: herbicidal activity, application before weed generation under submerged conditions (Table 16, symbol C); type: in vivo, oval-leafed pondweed (Monochoria vaginalis); conditions: 320 g/ha applied herbicide
How it was run: as §2

barnyard grass [23] = test: Test Example 3: herbicidal effect by foliage application, Wagner pot (Table 18, symbol H); type: in vivo, barnyard grass (Echinochloa crus-galli); conditions: amount of applied herbicide 320 g/ha
How it was run: as §4

false cleavers [24] = test: Test Example 4: herbicidal effect by soil treatment (Table 19, symbol Q); type: in vivo, false cleavers (Galium spurium); conditions: amount of applied herbicide 320 g/ha
How it was run: as §1

green foxtail [25] = test: Test Example 4: herbicidal effect by soil treatment (Table 19, symbol G); type: in vivo, green foxtail (Setaria viridis); conditions: amount of applied herbicide 320 g/ha
How it was run: as §1

redroot pigweed [26] = test: Test Example 5: herbicidal effect by foliage application, plastic box (Table 20, symbol N); type: in vivo, redroot pigweed (Amaranthus retroflexus); conditions: foliage application, 320 g/ha, evaluated three weeks after application
How it was run: as §3

wild oat [27] = test: Test Example 5: herbicidal effect by foliage application, plastic box (Table 20, symbol I); type: in vivo, wild oat (Avena fatua); conditions: foliage application, 320 g/ha, evaluated three weeks after application
How it was run: as §3

Structure (SMILES): COc1ccc2sc(-c3ccccc3OC)c(-c3c(O)c(C)nn(C)c3=O)c2c1 [2-165]
- M: velvetleaf, herbicidal effect rating (velvetleaf [1]): 2 (Herbicidal rate of 20% or more and less than 40%)
- O: lambsquarters, herbicidal effect rating (lambsquarters [2]): 4 (Herbicidal rate of 70% or more and less than 90%)
- F: southern crabgrass, herbicidal effect rating (southern crabgrass [3]): 3 (Herbicidal rate of 40% or more and less than 70%)
- Herbicidal effect on A: late watergrass (grade 0-5) (late watergrass): 3 (Herbicidal rate of 40% or more and less than 70%)
- N: redroot pigweed, herbicidal effect rating (redroot pigweed [4]): 4 (Herbicidal rate of 70% or more and less than 90%)
- R: persian speedwell, herbicidal effect rating (persian speedwell [5]): 5 (Herbicidal rate of 90% or more (almost completely withered))
- herbicidal effect on R: persian speedwell (criteria 0-5) (persian speedwell [6]): 4 (Herbicidal rate of 70% or more and less than 90%)
- herbicidal effect on D: Chinese sprangletop (Chinese sprangletop): 3 (Herbicidal rate of 40% or more and less than 70%)
- herbicidal effect on Q: false cleavers (criteria 0-5) (false cleavers [7]): 5 (Herbicidal rate of 90% or more (almost completely withered))
- herbicidal effect on P: chickweed (criteria 0-5) (chickweed [8]): 5 (Herbicidal rate of 90% or more (almost completely withered))
- P: chickweed, herbicidal effect rating (chickweed [9]): 4 (Herbicidal rate of 70% or more and less than 90%)
- herbicidal effect on E: rice flat sedge (rice flat sedge): 5 (Herbicidal rate of 90% or more (almost completely withered))
- H: barnyard grass, herbicidal effect rating (barnyard grass [10]): 3 (Herbicidal rate of 40% or more and less than 70%)
- herbicidal effect on L: windgrass (criteria 0-5) (windgrass [11]): 5 (Herbicidal rate of 90% or more (almost completely withered))
- Herbicidal effect on B: Japanese bulrush (grade 0-5) (Japanese bulrush): 0 (Herbicidal rate of 5% or less (almost no effect))
- herbicidal effect on K: Italian ryegrass (criteria 0-5) (Italian ryegrass [12]): 4 (Herbicidal rate of 70% or more and less than 90%)
- J: blackgrass, herbicidal effect rating (blackgrass [13]): 4 (Herbicidal rate of 70% or more and less than 90%)
- herbicidal effect on F: southern crabgrass (criteria 0-5) (southern crabgrass [14]): 5 (Herbicidal rate of 90% or more (almost completely withered))
- herbicidal effect on H: barnyard grass (criteria 0-5) (barnyard grass [15]): 5 (Herbicidal rate of 90% or more (almost completely withered))
- herbicidal effect on O: lambsquarters (criteria 0-5) (lambsquarters [16]): 5 (Herbicidal rate of 90% or more (almost completely withered))
- herbicidal effect on G: green foxtail (criteria 0-5) (green foxtail [17]): 5 (Herbicidal rate of 90% or more (almost completely withered))
- herbicidal effect on M: velvetleaf (criteria 0-5) (velvetleaf [18]): 5 (Herbicidal rate of 90% or more (almost completely withered))
- I: wild oat, herbicidal effect rating (wild oat [19]): 2 (Herbicidal rate of 20% or more and less than 40%)
- L: windgrass, herbicidal effect rating (windgrass [20]): 4 (Herbicidal rate of 70% or more and less than 90%)
- K: Italian ryegrass, herbicidal effect rating (Italian ryegrass [21]): 0 (Herbicidal rate of 5% or less (almost no effect))
- herbicidal effect on J: blackgrass (criteria 0-5) (blackgrass [22]): 5 (Herbicidal rate of 90% or more (almost completely withered))
- Herbicidal effect on C: oval-leafed pondweed (grade 0-5) (oval-leafed pondweed): 1 (Herbicidal rate of 5% or more and less than 20%)
- herbicidal effect on H: barnyard grass (barnyard grass [23]): 5 (Herbicidal rate of 90% or more (almost completely withered))
- Q: false cleavers, herbicidal effect rating (false cleavers [24]): 3 (Herbicidal rate of 40% or more and less than 70%)
- G: green foxtail, herbicidal effect rating (green foxtail [25]): 4 (Herbicidal rate of 70% or more and less than 90%)
- herbicidal effect on N: redroot pigweed (criteria 0-5) (redroot pigweed [26]): 5 (Herbicidal rate of 90% or more (almost completely withered))
- herbicidal effect on I: wild oat (criteria 0-5) (wild oat [27]): 5 (Herbicidal rate of 90% or more (almost completely withered))
